Paper PMC7875120 (Bioorganic & medicinal chemistry, 2020)
Structures can show the parent of a compound that is named as a salt.

What was measured:
[1] = test system: cellular microtubules in A-10 cells; experiment: Microtubule depolymerizing effects, cell-based phenotypic screen; conditions: for microtubule depolymerizing activity: at 10000 nM, A-10 cells
U251 cancer cells = experiment: U251 cytotoxicity assay; type: cell-based, human; conditions: versus compound 5
NCI 60 cancer cell lines = experiment: NCI 60 cell line panel; type: cell-based; conditions: values in Table S2, not available
[2] = test system: U251 human glioma cells implanted into nude mice; experiment: U251 flank xenograft study; type: in vivo; conditions: 17.5 mg/kg twice week
[3] = Maximal tolerated dose, dose escalation study; type: in vivo; conditions: nude mice, escalation until >5% weight loss
MDA-MB-435 cancer cells = conditions: earlier report; cited from earlier work
HeLa cells = experiment: Antiproliferative activity in parental HeLa cells; type: cell-based; conditions: Homo sapiens, read-out: IC50 ± SD HeLa
SK-OV-3 cells = experiment: Antiproliferative activity in parental SK-OV-3 cells; type: cell-based; conditions: Homo sapiens, SK-OV-3, read-out: IC50 ± SD SK-OV-3

## COc1ccc2c(N(C)c3nc(C)nc4c3CCC4)cccc2c1 [Compound 4, N-(6’-methoxynaphthyl-1’)-N,2-dimethyl-cyclopenta[d]pyrimidin-4-amine hydrochloric acid salt]
[1]
  microtubule depolymerizing activity: no microtubule depolymerizing activity
U251 cancer cells
  fold less potent/active than 5 in the U251 cytotoxicity assay: 5 fold

## COc1cccc2c(N(C)c3nc(C)nc4c3CCC4)cccc12 [Compound 7, N-(5’-methoxynaphthyl-1’)-N,2-dimethyl-cyclopenta[d]pyrimidin-4-amine hydrochloric acid salt]
U251 cancer cells
  fold less potent/active than 5 in the U251 cytotoxicity assay: 2 fold

## COc1ccc2c(N(C)c3ncnc4c3CCC4)cccc2c1 [Compound 8, N-(6’-methoxynaphthyl-1’)-N-methyl-cyclopenta[d]pyrimidin-4-amine]
[1]
  microtubule depolymerizing activity: no microtubule depolymerizing activity
U251 cancer cells
  fold less potent/active than 5 in the U251 cytotoxicity assay: 7 fold

## COc1cccc2cc(N(C)c3nc(C)nc4c3CCC4)ccc12 [Compound 5, N-(5’-methoxynaphthyl-2’)-N,2-dimethyl-cyclopenta[d]pyrimidin-4-amine hydrochloric acid salt]
[1]; versus CA-4
  fold more potent than CA-4 in microtubule depolymerizing activity: about 3 fold
NCI 60 cancer cell lines
  GI50s in the NCI 60 cell line panel: potent GI50s against most of the NCI 60 cancer cell lines
[2]; U251 xenograft mice
  toxicity as measured by animal weight: without significant toxicity
[2]; started 7 days after implantation
  tumor growth (tumor volume) in U251 xenograft: inhibited tumor growth as compared with the carrier or temozolomide
[3]
  Maximal tolerated dose (MTD): 17.5 mg/kg/2x wk

## COc1ccc(Nc2nc(C)nc3c2CC(C)C3)cc1 (stereo not drawn) [Compound 2]
MDA-MB-435 cancer cells
  antiproliferative and microtubule depolymerizing activity: almost inactive

## COc1ccc(/C=C\c2cc(OC)c(OC)c(OC)c2)cc1O [CA-4, Combretastatin A-4]
HeLa cells
  IC50: 4.7 ± 0.2 nM

## COc1ccc(N(C)c2nc(C)nc3c2CCC3)cc1 [Compound 3, 2,4-dimethyl-4-(4′-methoxy)phenyl cyclopenta[d]pyrimidine]
HeLa cells
  IC50: 12 ± 1.2 nM
SK-OV-3 cells
  IC50: 11.3 ± 0.2 nM

## COc1cccc2cc(N(C)c3ncnc4c3CCC4)ccc12 [Compound 9, N-(5’-methoxynaphthyl-2’)-N-methyl-cyclopenta[d]pyrimidin-4-amine hydrochloric salt]
U251 cancer cells
  fold less potent/active than 5 in the U251 cytotoxicity assay: 4 fold

## COc1ccc(N(C)c2nc(C)nc3c2CCC3)c2ccccc12 [Compound 6, N-(4’-methoxynaphthyl-1’)-N,2-dimethyl-cyclopenta[d]pyrimidin-4-amine]
[1]; versus compound 5
  fold less potent than 5 for microtubule depolymerizing activity: more than 100 fold
U251 cancer cells
  fold less potent/active than 5 in the U251 cytotoxicity assay: 2 fold

## Cn1nnc2c(C(N)=O)ncn2c1=O [temozolomide, reference compound]
[3]
  Maximal tolerated dose (MTD): 50 mg/kg/wk
